Experimental findings from patent US8338410B2, “Neuroprotective compounds and pharmaceutical compositions comprising them” (Biocodex, priority 2005, dated 2012) are described below.

The structures appear in SMILES notation.

For this assay, the system named is mice subjected to histotoxic hypoxia induced by potassium cyanide. Description: KCN hypoxia (i.p.) in mice (survival time). The conditions noted are these: KCN 15 mg/kg i.p. The assay is classed as in vivo, CD1 male mice.
Where [1] appears, read: compound i.p. dose 3, first i.p. series.
The mark [2] stands for this setting: compound i.p. dose 10, first i.p. series.
The mark [3] stands for this setting: compound i.p. dose 30, first i.p. series (control 106 ± 9).
The mark [4] stands for this setting: compound i.p. dose 30, second i.p. series (control 91 ± 4).
The mark [5] stands for this setting: compound i.p. dose 50, second i.p. series.
Setting [6] is: compound i.p. dose 75, second i.p. series.

Consider `CCNC1=Nc2ccc(Cl)cc2C(C)(c2ccccc2)O1.Cl` (centres unmarked) [etifoxine, 6-chloro-2-ethylamino-4-methyl-4-phenyl-4H-[3,1]benzoxazine hydrochloride], for which the Percentage variation entry is, setting by setting: under setting [1], “+15%”; under setting [2], “+7%”; under setting [3], “+22%”; under setting [4], “+19%”; under setting [5], “+36%”; under setting [6], “+46%”. In addition, the Percentage variation runs as follows: (compound p.o. dose 100) −13%; (compound p.o. dose 200) “+14%”; (compound p.o. dose 300) −6%. The “Survival time in seconds (m ± sem)” value runs as follows: under setting [1], 122 ± 7 s; under setting [2], 113 ± 5 s; under setting [3], 129 ± 11 s; under setting [4], 108 ± 4 s; under setting [5], 124 ± 8 s; under setting [6], 133 ± 6 s. The “Survival time in seconds (m ± sem)” value came to 94 ± 6 s (compound p.o. dose 100), 123 ± 12 s (compound p.o. dose 200) and 102 ± 7 s (compound p.o. dose 300). For the same molecule, the survival time entry (oral administration) is “did not significantly affect survival time”. Moreover, under “over 50 mg/kg i.p.”, the time to death result is on record as “significantly increased the time to death”.
